# Reference: BindingDB's records for doi:10.1016/s0960-894x(01)00529-7 (The R. W. Johnson Pharmaceutical Research Institute, 2001)
# pIC50: −log10 of the molar value.
# Experiment: Inhibition of thrombin-induced human gel-filtered platelet aggregation
row,Structure (SMILES),pIC50
1,"O=C(N[C@@H](CNC(=O)C1CCCn2c(CCC3CCNCC3)nnc21)C(=O)O)OCc1ccccc1 (stereo partly specified) [2-Benzyloxycarbonylamino-3-{[3-(2-piperidin-4-yl-ethyl)-5,6,7,8-tetrahydro-[1,2,4]triazolo[4,3-a]pyridine-8-carbonyl]-amino}-propionic acid]",10.17
2,"O=C(N[C@@H](CNC(=O)C1CCCn2c(C=CC3CCNCC3)nnc21)C(=O)O)OCc1ccccc1 (stereo partly specified) [2-Benzyloxycarbonylamino-3-{[3-(2-piperidin-4-yl-vinyl)-5,6,7,8-tetrahydro-[1,2,4]triazolo[4,3-a]pyridine-8-carbonyl]-amino}-propionic acid]",10.39
3,"CC1(C(=O)NC[C@H](NC(=O)OCc2ccccc2)C(=O)O)CCCn2c(CCC3CCNCC3)nnc21 (stereo partly specified) [2-Benzyloxycarbonylamino-3-{[8-methyl-3-(2-piperidin-4-yl-ethyl)-5,6,7,8-tetrahydro-[1,2,4]triazolo[4,3-a]pyridine-8-carbonyl]-amino}-propionic acid]",8.57
4,"O=C(NC[C@H](NS(=O)(=O)Cc1ccccc1)C(=O)O)C1CCCn2c(/C=C/C3CCNCC3)nnc21 (stereo partly specified) [2-Phenylmethanesulfonylamino-3-{[3-(2-piperidin-4-yl-vinyl)-5,6,7,8-tetrahydro-[1,2,4]triazolo[4,3-a]pyridine-8-carbonyl]-amino}-propionic acid]",10.37
5,"O=C(Cc1cccnc1)N[C@@H](CNC(=O)C1CCCn2c(/C=C/C3CCNCC3)nnc21)C(=O)O (stereo partly specified) [3-{[3-(2-Piperidin-4-yl-vinyl)-5,6,7,8-tetrahydro-[1,2,4]triazolo[4,3-a]pyridine-8-carbonyl]-amino}-2-(2-pyridin-3-yl-acetylamino)-propionic acid]",9.92
6,"O=C(O)C[C@H](NC(=O)C1CCCn2c(CCC3CCNCC3)nnc21)c1cccnc1 (stereo partly drawn) [(S)-3-{[3-(2-Piperidin-4-yl-ethyl)-5,6,7,8-tetrahydro-[1,2,4]triazolo[4,3-a]pyridine-8-carbonyl]-amino}-3-pyridin-3-yl-propionic acid]",10.80
7,"O=C(O)C[C@H](NC(=O)c1cccn2c(CCC3CCNCC3)nnc12)c1cccnc1 [(S)-3-{[3-(2-Piperidin-4-yl-ethyl)-[1,2,4]triazolo[4,3-a]pyridine-8-carbonyl]-amino}-3-pyridin-3-yl-propionic acid]",9.43
8,"O=C(O)C[C@H](NC(=O)C1CCCn2c(/C=C/C3CCNCC3)nnc21)c1cccnc1 (stereo partly drawn) [(S)-3-{[3-((E)-2-Piperidin-4-yl-vinyl)-5,6,7,8-tetrahydro-[1,2,4]triazolo[4,3-a]pyridine-8-carbonyl]-amino}-3-pyridin-3-yl-propionic acid]",10.21
9,"O=C(O)C[C@H](NC(=O)C1CCCn2c(/C=C/C3CCNCC3)nnc21)c1cnc2ccccc2c1 (stereo partly drawn) [(S)-3-{[3-((E)-2-Piperidin-4-yl-vinyl)-5,6,7,8-tetrahydro-[1,2,4]triazolo[4,3-a]pyridine-8-carbonyl]-amino}-3-quinolin-3-yl-propionic acid]",10.24
10,O=C(O)C[C@H](NC(=O)[C@@H]1CCCN(C(=O)CCC2CCNCC2)C1)c1cccnc1 [(S)-3-{[(R)-1-(3-Piperidin-4-yl-propionyl)-piperidine-3-carbonyl]-amino}-3-pyridin-3-yl-propionic acid],10.22
11,O=C(N[C@@H](CNC(=O)[C@@H]1CCCN(C(=O)CCC2CCNCC2)C1)C(=O)O)OCc1ccccc1 [RWJ-53419],10.57
